2 compounds from patent US20240327425A1, “KRAS G12D INHIBITOR AND USE THEREOF” (SHANGHAI DE NOVO PHARMATECH CO., LTD., priority 2021, published 2024) can be followed below.

In test [1] the test system is GP2D human colon cancer cells subcutaneous xenograft tumor. Kind of test: In vivo pharmacodynamic experiment of subcutaneous xenograft tumor model in mice of GP2D human colon cancer cells. As to conditions: BALB/c nude mice; for Tumor volume (11 days, mm^3): 11 days (at grouping). On the procedure: Cell culture: GP2D human colon cancer cells were maintained in monolayer culture in DMEM culture medium containing 10% fetal bovine serum in a constant temperature incubator containing 5% CO2 at 37° C. Tumor cells were passaged twice a week. Cells in the exponential growth phase were harvested and counted for inoculation.
Experimental animals: BALB/c nude mice, 6 to 8 weeks, 18 to 22 g, purchased from Jiangsu GemPharmatech Co. Ltd.
Experimental method: GP2D cell line ([…]) was inoculated subcutaneously on the right back of experimental mice. The inoculation volume of each mouse was 0.1 mL. The growth of the tumor was observed regularly. When the tumor grew to about 150 mm^3, the mice were randomly grouped according to the tumor size and body weight, and the drug was administrated according to the administration plan shown in Table 1. The body weight and tumor size were measured twice a week throughout the experiment.
tumor volume (mm^3)=0.5×(tumor long diameter×tumor short diameter^2). Tumor size calculation formula: […]

For test [2], the system named is GP2D human colon cancer cells. Kind of test: Cell proliferation assay (Cell Titer-Glo), GP2D. It counts as cell-based. As to conditions: Homo sapiens, 72 hours. As for the experimental part: (§1) On day 1, AGS human gastric cancer cells, ASPC-1 human pancreatic cancer cells, or GP2D human colon cancer cells (Nanjing Cobioer Biosciences Co. Ltd.) in the logarithmic growth phase were taken, digested with an appropriate amount of trypsin, formulated into a single cell suspension using RPMI 1640 (Gibco) medium containing 10% fetal bovine serum and 1% penicillin-streptomycin, counted to adjust the cell density, inoculated in a 96-well plate at 95 μL/well so that there were 3000 cells per well, and then the cell culture plate was incubated in a 37° C., 5% CO2 incubator for overnight. On day 2, a 10 mM concentrated stock solution of KRAS G12D inhibitor was 3-fold serially diluted with dimethyl sulfoxide solution, and then diluted with AGS complete culture medium to make a working solution, which was added to a cell culture plate at 5 μL/well so that the compound had the highest concentration of 10 μM and the lowest concentration of 0.0015 μM, and the control group was 0.5% dimethyl sulfoxide. The cell culture plate was briefly centrifuged and then incubated in a CO2 incubator for 72 hours. On day 5, the cell culture plate was taken out, added with Cell Titer-Glo (Promega) detection reagent in each well, incubated in the dark for 10 minutes, and then luminescence was detected using a microplate reader (Tecan, Infinite M1000 Pro). Data were analyzed using Graphpad software, and curve fitting was performed with four-parameter equation and the IC50 value of the inhibitor was calculated.
A general note: Cellular ATP, detected with luciferase, serves as a proxy for viable cell number.

For test [3], the target named is Human KRAS G12D His-tagged protein (Homo sapiens (Human), UniProt P01116, G12D). Description: KRAS G12D binding assay (TR-FRET). To be noted: GDP 20 nM, GTP-Red. On the procedure: The binding ability of the compound to KRAS G12D protein was detected by TR-FRET method, and the inhibitory activity of the compound on KRAS G12D protein was evaluated. Human KRAS G12D His-tagged (Cisbio, 63ADK000CB27PEG) protein was 100-fold diluted with PPI Eu detection buffer (Cisbio, 61DB9RBF), then 5 μL of which was added to a 384-well plate and centrifuged at 2000 rpm for 40 seconds. A 10 mM concentrated stock solution of the test compound was prepared with dimethyl sulfoxide, 3-fold serially diluted, then diluted to make a working solution (0.5% DMSO) with PPI Eu detection buffer, added to a 384-well plate at 5 μL/well, with the control group added with 0.5% dimethyl sulfoxide and the highest concentration of the test compound at 10 μM, and centrifuged at 2000 rpm for 40 seconds. An 80 nM GDP standard working solution (Cisbio, 63ADK000CB27PEG) was prepared with PPI Eu detection buffer and added to a 384-well plate at 5 μL/well, with the final concentration of GDP standard working solution at 20 nM. The plate was centrifuged at 2000 rpm for 40 seconds and reacted at room temperature for 30 minutes. 1×6His Eu cryptate antibody and GTP-Red reagent (Cisbio, 63ADK000CB27PEG) were prepared with PPI Eu detection buffer, mixed in a volume ratio of 1:1, 5 μL of which was then added to a 384-well plate, centrifuged at 2000 rpm for 40 seconds, and incubated at room temperature for 30 minutes. The fluorescence intensity at 620 nm and 665 nm was detected by a microplate reader, and the inhibitory activity of the compound on KRAS G12D protein was obtained by fitting a four-parameter equation.
Chain of Human KRAS G12D His-tagged protein (P01116-2 other isoform, or with tags, fused parts or gaps G12D): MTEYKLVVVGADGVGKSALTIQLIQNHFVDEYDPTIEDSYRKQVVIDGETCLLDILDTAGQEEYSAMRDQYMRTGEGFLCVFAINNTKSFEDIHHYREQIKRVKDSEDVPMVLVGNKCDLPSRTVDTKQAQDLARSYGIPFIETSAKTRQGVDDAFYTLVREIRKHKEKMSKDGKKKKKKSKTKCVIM
On the technique in general: In TR-FRET formats the signal depends on donor and acceptor labels being close together.

Test [4] deals with ASPC-1 human pancreatic cancer cells. Kind of test: Cell proliferation assay (Cell Titer-Glo), ASPC-1. It counts as cell-based. As to conditions: Homo sapiens, ASPC1, Aspc-1, 72 hours. On the procedure:
as §1

Test [5] concerns phosphorylation level of ERK1/2 in ASPC-1 human pancreatic cancer cells. Description: pERK cell level assay (PHOSPHO-ERK1/2 HTRF kit). It counts as cell-based. As to conditions: Homo sapiens, ASPC1, pERK1/2 (THR202/TYR204), Aspc-1 cells, 4 hours incubation. As for the experimental part:
In this experiment, the phosphorylation level of ERK1/2 in AGS human gastric cancer cells or ASPC-1 human pancreatic cancer cells was detected using PHOSPHO-ERK1/2 (THR202/TYR 204) (Cisibo, 64ERKPEH) kit, and the inhibitory effect of the compounds on KRAS G12D was investigated based on the phosphorylation level of ERK1/2.
On day 1, the density of AGS cell (ATCC) suspension was adjusted to 2.1×10^5 cells/mL, then the suspension was spread in a 96-well plate at 95 μL/well so that there were 2×10^4 cells per well, and the cell culture plate was incubated in a 37° C., 5% CO2 incubator for overnight. On day 2, the compound was serially diluted with 100% dimethyl sulfoxide, and then further diluted with a complete culture medium (RPMI-1640+10% FBS+1% PS) to make a working solution of the compound, which was added to a 96-well cell culture plate at 5 μL/well, and incubated in a 37° C., 5% CO2 incubator for 4 hours. After the incubation was completed, the culture medium was discarded, then 1× lysis buffer was added thereto at 50 μL/well, and the plate was shaken at room temperature for 30 minutes. 16 μL of lysis buffer was added to a white 384-well shallow well plate, then 4 μL of pre-formulated antibody mixture was added thereto, and the plate was sealed with microplate sealer and incubated at room temperature for overnight. On day 3, detection was performed on a TECAN M1000 Pro microplate reader using the HTRF setting, and the IC50 value of the compound was calculated.

Structures are written as SMILES.

Consider `N#Cc1c(N)sc2cccc(-c3c(Cl)c4c5c(nc(OC[C@@]67CCCN6C[C@H](F)C7)nc5c3F)N3C[C@H]5CC[C@H](N5)[C@H]3CO4)c12` (single isomer, unassigned) [Compound I-7-2], for which the “Tumor volume (11 days, mm^3)” value stood at 140.32 ± 19.74 mm^3 in test [1] (3 mg/kg i.p. twice a day) and 139.69 ± 17.49 mm^3 in test [1] (10 mg/kg i.p. twice a day). Further, the entries for the “Tumor volume (21 days, mm^3)” value in test [1] (3 mg/kg i.p. twice a day) and in test [1] (10 mg/kg i.p. twice a day) were 80.27 ± 11.38 mm^3 and 70.19 ± 11.89 mm^3, respectively. Moreover, the figures for the “T/C (%)” value in test [1] (3 mg/kg i.p. twice a day) and in test [1] (10 mg/kg i.p. twice a day) were 18.6% and 15.5%, respectively. The “Tumor regression rate (%)” value is reported as −39.9% in test [1] (3 mg/kg i.p. twice a day) and −49.8% in test [1] (10 mg/kg i.p. twice a day). The IC50 in test [2] came to 0.095 nM; in test [3] it was 2.44 nM; in test [4], 1.7 nM; in test [5], 0.544 nM.
Regarding `N#Cc1c(N)sc2c(F)ccc(-c3c(Cl)c4c5c(nc(OC[C@@]67CCCN6C[C@H](F)C7)nc5c3F)N3C[C@H]5CC[C@H](N5)[C@H]3CO4)c12` [Compound I-11, 2-amino-4-((5aS,6S,9R)-3-chloro-1-fluoro-13-(((2R,7aS)-2-fluorohexahydro-1H-pyrrolizin-7a-yl)methoxy)-5a,6,7,8,9,10-hexahydro-5H-6,9-epiminoazepino[2′,1′:3,4][1,4]oxazepino[5,6,7-de]quinazolin-2-yl)-7-fluorobenzo[b]thiophene-3-carbonitrile], the half-inhibitory concentration (IC50) in test [2] was 0.336 nM; in test [3], 11.2 nM; in test [4], 12.6 nM; in test [5], 1.01 nM.

A word on the IC50: it is the point on the concentration scale where inhibition reaches its midpoint.
